# Assay results as given in US8734853B2, “HDL particles for delivery of nucleic acids” (University of North Texas Health Science Center at Fort …, priority 2008, dated 2014).
# Experiments:
# SKOV3ip1 [1] = assay: Orthotopic ovarian cancer mouse model (SKOV3ip1); type: in vivo, female athymic nude mice; conditions: compared to control group
# Experimental: (§1) Orthotopic mouse model. The 10- to 12-week-old female athymic nude mice were obtained from the US National Cancer Institute. All experiments were approved by the Institutional Animal Care and Use Committee of the M.D. Anderson Cancer Center. […] Tumor cells for appropriate ovarian cancer mouse models (HeyA8, 2.5×105; SKOV3ip1 and […], 1.0×106) were injected intraperitoneally into mice on day 0. Mice randomized into appropriate groups on day 7 when tumors had been established and were palpable. After 3-5 weeks of treatment (depending on the model), mice were necropsied and tumors were harvested. Small interfering RNA (siRNA). Specific siRNAs targeted against Stat3-7 (target sequence [NT] ID NO:1), FAK (target Sequence [NT] ID NO:2) and control siRNA targeted against (target sequence:[NT] ID NO:3) were purchased from Sigma-Aldrich Corporation, (Woodland, Tex.). These were incorporated into r-HDL nanoparticles, as previously described (Mooberry et al., 2009). 5 ug of r-HDL incorporated siRNA was injected intraperitoneally twice weekly. For in vitro studies, mRNA-specific or nonspecific (control) siRNA was incorporated into Qiagen RNAiFect transfection agent (1 ug of siRNA to 3 uL of RNAiFect). […] Cells were first transfected with STAT3 siRNA. Twenty-four hours after transfection, media was changed to standard siRNA-free media and cells were treated with docetaxel (see below for details). […]
# SKOV3ip1 [2] = assay: TUNEL staining of tumor tissues from the SKOV3ip1 model; type: in vivo, female athymic nude mice; conditions: SKOV3ip1 model tumors, compared to control group
# Experimental: TUNEL Staining. Assessment of apoptosis, frozen sections stained by terminal deoxynucleotidyl transferase-mediated deoxyuridine triphosphate nick-end labeling (TUNEL; green; Promega, Madison, Wis.), was performed as described previously (Shahzad et al., 2009). The samples were counterstained with Hoechst 1:10,000 (Thaker et al., 2005). An apoptotic body was represented by green fluorescence. To quantify apoptotic cells, the number of TUNEL positive cells was calculated in 10 random fields at the original magnification 200× from five separate slides (per group) and averaged.
# STAT3 is known to increase cell survival and inhibit apoptosis (Shen et al., 2001; Catlett-Falcone et al., 1999; Zushi et al., 1998; Masude et al., 2002). To assess whether STAT3 knockdown would enhance the efficacy of docetaxel treatment by enhancing its ability to produce apoptosis., fluorescents labeled TUNEL staining was performed on fresh frozen tumor tissues from the SKOV3ip1 ovarian cancer treatment model.
# [3] = test system: SKOV3ip1 ovarian cancer cells; assay: Annexin-V PE/7AAD flow cytometry apoptosis assay; type: cell-based; conditions: docetaxel 4 nM, 48 hours after docetaxel treatment
# Experimental: All in vitro experiments were conducted using 4.0 nM concentration of docetaxel in SKOV3ip1 ovarian cancer cells. These cells were treated with docetaxel after STAT3 gene was silenced using siRNA (as described above) for 48 hours.
# Additionally, to determine the effects of in vitro STAT3 targeting on apoptosis, STAT3 gene was silenced in SKOV3ip1 ovarian cancer cells using an siRNA targeted against STAT3 and followed by treatment with docetaxel (4 nM). 48 hours after docetaxel treatment, the extent of cell death secondary to apoptosis was analyzed after Annexin-V PE/7AAD staining with flow cytometry.
# HeyA8 = assay: Orthotopic mouse model of ovarian carcinoma (HeyA8); type: in vivo, female athymic nude mice
# Experimental: Orthotopic mouse model. The 10- to 12-week-old female athymic nude mice were obtained from the US National Cancer Institute. All experiments were approved by the Institutional Animal Care and Use Committee of the M.D. Anderson Cancer Center. […] Tumor cells for appropriate ovarian cancer mouse models (HeyA8, 2.5×105; SKOV3ip1 and […], 1.0×106) were injected intraperitoneally into mice on day 0. Mice randomized into appropriate groups on day 7 when tumors had been established and were palpable. After 3-5 weeks of treatment (depending on the model), mice were necropsied and tumors were harvested. Small interfering RNA (siRNA). Specific siRNAs targeted against Stat3-7 (target sequence [NT] ID NO:1), FAK (target Sequence [NT] ID NO:2) and control siRNA targeted against (target sequence:[NT] ID NO:3) were purchased from Sigma-Aldrich Corporation, (Woodland, Tex.). These were incorporated into r-HDL nanoparticles, as previously described (Mooberry et al., 2009). 5 ug of r-HDL incorporated siRNA was injected intraperitoneally twice weekly. For in vitro studies, mRNA-specific or nonspecific (control) siRNA was incorporated into Qiagen RNAiFect transfection agent (1 ug of siRNA to 3 uL of RNAiFect). […] Cells were first transfected with STAT3 siRNA. Twenty-four hours after transfection, media was changed to standard siRNA-free media and cells were treated with docetaxel (see below for details). Reagents. Docetaxel was purchased from Sanofi-Aventis (Bridgewater, N.J.). […] These cells were treated with docetaxel after STAT3 gene was silenced using siRNA (as described above) for 48 hours. In In vivo experiments, appropriate groups received treatment with docetaxel starting on day 7, once a week, intraperitoneally at: 50 ug/mouse (HeyA8 and HeyA8-MDR) and 30 ug/mouse (SKOV3). […] Statistics. Continuous variables were compared with the use of the Student t test (between 2 groups) or analysis of variance (for all groups) if normally distributed, and with the use of the Mann-Whitney rank sum test or Kruskal Wallis test (for all groups) if nonparametric. […]
# SKOV3ip1 [4] = assay: Ki-67 staining (cell proliferation index) of tumors from SKOV3ip1 model; type: in vivo, female athymic nude mice; conditions: compared with control group
# From the text: Effect of STAT3 targeting on tumor microenvironment. […] The combination of STAT3 siRNA/rHDL and docetaxel reduced tumor cell proliferation by 48% (P<0.01) compared with control group (FIG. 7).
# [5] = test system: tumor associated angiogenesis; assay: CD31 staining, microvessel density (MVD) of tumor samples; conditions: compared with control siRNA/rHDL treatment
# Experimental: Paraffin sections for CD31 (1:800 dilution, Pharmingen), were stained at 4° C. […] To quantify MVD, five random 0.159 mm2 fields at 100× magnification for each tumor were examined, and microvessels within those fields were counted (Thaker et al., 2005).
# In order to ascertain the effects of STAT3 silencing on tumor associated angiogenesis, CD 31 staining on fresh frozen tumor samples from all four treatment groups (FIG. 7) was determined along with microvessel density (MVD).
# HeyA8MDR = assay: Multi-drug resistant model of ovarian carcinoma (HeyA8MDR); type: in vivo, female athymic nude mice; conditions: compared to control siRNA/rHDL
# Experimental: as §1
# HCT116 = HCT116 model, compared to controls
# Ovarian Tumor Cells = assay: Gene expression profile after STAT3 knockdown (Illumina microarray / quantitative RT-PCR); type: cell-based
# Experimental: Effect of STAT3 Silencing on Gene Expression profile of Ovarian Tumor Cells. STAT3 knockdown using siRNA targeted against STAT3, microarray analysis using Illumina platform was performed There were 460 genes that were identified to have differential expression levels between the control and STAT3 targeted group. Data was then analyzed using ingenuity-pathway assistance and 32 genes that were involved in cell survival and apoptosis were chosen (Table 1).
# [6] = test system: SKOV3ip1 ovarian cancer cells; assay: MTT assay, docetaxel after STAT3 siRNA transfection; type: cell-based; conditions: SKOV3ip1 cells transfected with STAT3 siRNA, docetaxel in escalating doses, compared to docetaxel treatment
# Experimental: Small interfering RNA (siRNA). Specific siRNAs targeted against Stat3—7 (target sequence 5′-[…]-3′; SEQ ID NO:1), FAK (target Sequence 5′-[…]-3′; SEQ ID NO:2) and control siRNA targeted against (target sequence:5′-[…]-3′; SEQ ID NO:3) were purchased from Sigma-Aldrich Corporation, (Woodland, Tex.). These were incorporated into r-HDL nanoparticles, as previously described (Mooberry et al., 2009). 5 ug of r-HDL incorporated siRNA was injected intraperitoneally twice weekly. For in vitro studies, mRNA-specific or nonspecific (control) siRNA was incorporated into Qiagen RNAiFect transfection agent (1 ug of siRNA to 3 uL of RNAiFect). Only 70% to 80% confluent SKOV3ip1 cells were utilized. Cells were first transfected with STAT3 siRNA. Twenty-four hours after transfection, media was changed to standard siRNA-free media and cells were treated with docetaxel (see below for details).
# MTT assay. SKOV3 cell (1.5×105) cells were plated in each well, using 6 well plates. Cells were then transfected with control or STAT3 siRNA overnight. […] Forty-eight hours after docetaxel treatment, the number of viable cells was determined by adding 50 μL of 0.15% 3-(4,5-dimethylthiazol-2-yl)-2,5-diphenyl tetrazolium bromide (MTT; Sigma) to each well. […] Viable cells were quantified by measuring the absorbance at 570 nm using a uQuant plate reader (Bio-Tek, Winooski, Vt.). […]
# [7] = STAT3 targeting study, compared to the control group
compound,measurement,setting,value
CC(=O)O[C@@]12CO[C@@H]1C[C@H](O)[C@@]1(C)C(=O)[C@H](O)C3=C(C)[C@@H](OC(=O)[C@H](O)[C@@H](NC(=O)OC(C)(C)C)c4ccccc4)C[C@@](O)([C@@H](OC(=O)c4ccccc4)[C@H]21)C3(C)C [docetaxel],reduction in tumor growth,SKOV3ip1 [1],78%
same,increase in tumor cell apoptosis (TUNEL),SKOV3ip1 [2],12 fold
same,increase in apoptosis compared to control,[3],5.2 fold
same,reduction in tumor growth,HeyA8; FAK targeting study,74%
same,reduction in tumor growth,HeyA8; [7],62%
same,reduction in tumor metastasis,HeyA8; [7],77%
same,reduction in tumor cell proliferation (Ki-67),SKOV3ip1 [4],30%
same,"reduction in MVD (tumor associated vessel counts, CD31)",[5],66%
same,reduction in tumor growth,HeyA8MDR,17%
O=C1[O][Pt]2([NH][C@@H]3CCCC[C@H]3[NH]2)[O]C1=O [oxaliplatin],reduction in tumor growth,HCT116,55%
"STAT3 siRNA: siRNA against Stat3 (SEQ ID NO:1), transfected in vitro with Qiagen RNAiFect transfection agent (GCCUCUCUGCAGAAUUCAA; listed as RNA, chemistry not given here)",increase in apoptosis compared to control,[3],3 fold
same,Fold Change,"Ovarian Tumor Cells; gene ALOX5, Stat3 silencing vs control",1.43 fold
same,Fold Change,"Ovarian Tumor Cells; gene ATF6, Stat3 silencing vs control",0.44 fold
same,Fold Change,"Ovarian Tumor Cells; gene BAX, Stat3 silencing vs control",1.49 fold
same,Fold Change,"Ovarian Tumor Cells; gene BCL6, Stat3 silencing vs control",0.72 fold
same,Fold Change,"Ovarian Tumor Cells; gene BEX2, Stat3 silencing vs control",1.46 fold
same,Fold Change,"Ovarian Tumor Cells; gene CAV1, Stat3 silencing vs control",0.75 fold
same,Fold Change,"Ovarian Tumor Cells; gene CD24, Stat3 silencing vs control",0.73 fold
same,Fold Change,"Ovarian Tumor Cells; gene CDCP1, Stat3 silencing vs control",0.73 fold
same,Fold Change,"Ovarian Tumor Cells; gene CTGF, Stat3 silencing vs control",0.62 fold
same,Fold Change,"Ovarian Tumor Cells; gene CYR61, Stat3 silencing vs control",0.68 fold
same,Fold Change,"Ovarian Tumor Cells; gene DKK1, Stat3 silencing vs control",0.72 fold
same,Fold Change,"Ovarian Tumor Cells; gene DUSP1, Stat3 silencing vs control",0.74 fold
same,Fold Change,"Ovarian Tumor Cells; gene ETS2, Stat3 silencing vs control",0.56 fold
same,Fold Change,"Ovarian Tumor Cells; gene FGF2, Stat3 silencing vs control",0.68 fold
same,Fold Change,"Ovarian Tumor Cells; gene FOS, Stat3 silencing vs control",0.72 fold
same,Fold Change,"Ovarian Tumor Cells; gene HM OX1, Stat3 silencing vs control",1.79 fold
same,Fold Change,"Ovarian Tumor Cells; gene IGFBP3, Stat3 silencing vs control",0.45 fold
same,Fold Change,"Ovarian Tumor Cells; gene IL-1B, Stat3 silencing vs control",0.55 fold
same,Fold Change,"Ovarian Tumor Cells; gene IL-6, Stat3 silencing vs control",0.61 fold
same,Fold Change,"Ovarian Tumor Cells; gene KITLG, Stat3 silencing vs control",0.66 fold
same,Fold Change,"Ovarian Tumor Cells; gene NFKBIZ, Stat3 silencing vs control",0.65 fold
same,Fold Change,"Ovarian Tumor Cells; gene NQO1, Stat3 silencing vs control",0.55 fold
same,Fold Change,"Ovarian Tumor Cells; gene NRP1, Stat3 silencing vs control",0.67 fold
same,Fold Change,"Ovarian Tumor Cells; gene PLAUR, Stat3 silencing vs control",0.72 fold
same,Fold Change,"Ovarian Tumor Cells; gene PMAIP1, Stat3 silencing vs control",0.69 fold
same,Fold Change,"Ovarian Tumor Cells; gene PMEPA1, Stat3 silencing vs control",0.71 fold
same,Fold Change,"Ovarian Tumor Cells; gene PRKRA, Stat3 silencing vs control",0.68 fold
same,Fold Change,"Ovarian Tumor Cells; gene RASA1, Stat3 silencing vs control",0.68 fold
same,Fold Change,"Ovarian Tumor Cells; gene RTN1, Stat3 silencing vs control",1.37 fold
same,Fold Change,"Ovarian Tumor Cells; gene SFRP1, Stat3 silencing vs control",0.55 fold
same,Fold Change,"Ovarian Tumor Cells; gene SGK1, Stat3 silencing vs control",0.68 fold
same,Fold Change,"Ovarian Tumor Cells; gene SPARC, Stat3 silencing vs control",0.7 fold
same,Fold Change,"Ovarian Tumor Cells; gene SPP1, Stat3 silencing vs control",0.77 fold
same,Fold Change,"Ovarian Tumor Cells; gene STAT3, Stat3 silencing vs control",0.23 fold
same,Fold Change,"Ovarian Tumor Cells; gene TCF3, Stat3 silencing vs control",0.71 fold
same,Fold Change,"Ovarian Tumor Cells; gene TNFRSF11B, Stat3 silencing vs control",0.61 fold
same,Fold Change,"Ovarian Tumor Cells; gene TNFSF10, Stat3 silencing vs control",0.7 fold
same,Fold Change,"Ovarian Tumor Cells; gene XBP1, Stat3 silencing vs control",0.74 fold
same,effect of STAT3 silencing on IC 50 values of docetaxel,[6],lowered the IC 50 values of docetaxel significantly
